Molecules are shown by their SMILES. Read-outs that look alike come from different tables or passages of the source.

One assay concerns the target T1, Axl (Homo sapiens, UniProt P30530).
T1 sequence (P30530 26-894): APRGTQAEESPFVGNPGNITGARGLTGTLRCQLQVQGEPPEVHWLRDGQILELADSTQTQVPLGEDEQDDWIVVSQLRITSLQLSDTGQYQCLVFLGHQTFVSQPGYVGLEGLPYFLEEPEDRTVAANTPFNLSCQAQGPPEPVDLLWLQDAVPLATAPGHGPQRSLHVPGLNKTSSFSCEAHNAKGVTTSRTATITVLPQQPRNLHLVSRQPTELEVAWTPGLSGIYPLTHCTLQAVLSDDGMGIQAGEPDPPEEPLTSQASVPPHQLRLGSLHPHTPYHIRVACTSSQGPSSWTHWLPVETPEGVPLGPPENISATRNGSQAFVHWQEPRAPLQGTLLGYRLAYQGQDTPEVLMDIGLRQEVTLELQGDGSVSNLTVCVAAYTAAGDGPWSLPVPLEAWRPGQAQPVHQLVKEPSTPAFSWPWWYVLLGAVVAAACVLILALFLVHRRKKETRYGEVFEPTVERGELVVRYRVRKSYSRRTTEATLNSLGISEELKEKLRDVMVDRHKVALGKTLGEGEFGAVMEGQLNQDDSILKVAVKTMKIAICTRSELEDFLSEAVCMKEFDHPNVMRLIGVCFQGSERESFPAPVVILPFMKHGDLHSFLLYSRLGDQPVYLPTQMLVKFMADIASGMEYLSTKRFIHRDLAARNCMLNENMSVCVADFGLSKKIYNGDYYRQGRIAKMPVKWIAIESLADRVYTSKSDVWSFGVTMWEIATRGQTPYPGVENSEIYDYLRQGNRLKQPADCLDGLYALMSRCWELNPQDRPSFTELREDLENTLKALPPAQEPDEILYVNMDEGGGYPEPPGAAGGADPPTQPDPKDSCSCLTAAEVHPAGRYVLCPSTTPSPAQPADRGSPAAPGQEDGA
Nature of the assay: LanthaScreen Eu kinase binding assay for Axl. The protocol: LanthaScreen® Eu Kinase Binding assays were conducted at Life Technologies using the manufacturer's specifications for each kinase indicated.
Briefly, the principle behind this assay is based upon the binding and displacement of an Alexa Fluor 647-labeled tracer to the kinase of interest. Binding of the tracer to the kinase is detected using an EU-labeled anti-tag antibody. Simultaneous binding of both the tracer and antibody to the kinase gives rise to a FRET-signal. Binding of an inhibitor to the kinase competes for binding with the tracer, resulting in a loss of FRET-signal.
A given compound was diluted in DMSO to make a stock compound solution. The stock compound solution was serially diluted over eight steps in DMSO. Each diluted compound solution in DMSO was diluted in kinase buffer. Afterwards four kinds of working solution were prepared. First, Tracer-Working solution consists of Tracer 236 and Kinase Buffer. Second, Axl, Mer, Tyro3 or Met/anti-GST-AB-Working solution contained one of the kinases Axl, and Mer or anti-GST-AB (=anti glutathione-S-transferase antibody) in Kinase Buffer. Third, anti-GST-AB-Working solution was made with anti-GST-AB and Kinase Buffer. Last, in the DMSO-Working solution DMSO was added to Kinase Buffer to a final concentration to 3%. Each of the four kinds of working solutions were separately added to the assay plate and then incubated for 1 h at room temperature. After incubation, the assay plate was measured with respect to the FRET-Signal with the EnVision (Perkin Elmer) using the program LanthaHTRF-Assay. Data evaluation was done in the Quattro Workflow software. Kd (the equilibrium dissociation constant) values were calculated relative to vehicle (DMSO) control wells.

A further assay concerns the target T2, Mer (Ba/F3 cells) (Homo sapiens, UniProt Q12866).
T2 sequence (Q12866 1-999): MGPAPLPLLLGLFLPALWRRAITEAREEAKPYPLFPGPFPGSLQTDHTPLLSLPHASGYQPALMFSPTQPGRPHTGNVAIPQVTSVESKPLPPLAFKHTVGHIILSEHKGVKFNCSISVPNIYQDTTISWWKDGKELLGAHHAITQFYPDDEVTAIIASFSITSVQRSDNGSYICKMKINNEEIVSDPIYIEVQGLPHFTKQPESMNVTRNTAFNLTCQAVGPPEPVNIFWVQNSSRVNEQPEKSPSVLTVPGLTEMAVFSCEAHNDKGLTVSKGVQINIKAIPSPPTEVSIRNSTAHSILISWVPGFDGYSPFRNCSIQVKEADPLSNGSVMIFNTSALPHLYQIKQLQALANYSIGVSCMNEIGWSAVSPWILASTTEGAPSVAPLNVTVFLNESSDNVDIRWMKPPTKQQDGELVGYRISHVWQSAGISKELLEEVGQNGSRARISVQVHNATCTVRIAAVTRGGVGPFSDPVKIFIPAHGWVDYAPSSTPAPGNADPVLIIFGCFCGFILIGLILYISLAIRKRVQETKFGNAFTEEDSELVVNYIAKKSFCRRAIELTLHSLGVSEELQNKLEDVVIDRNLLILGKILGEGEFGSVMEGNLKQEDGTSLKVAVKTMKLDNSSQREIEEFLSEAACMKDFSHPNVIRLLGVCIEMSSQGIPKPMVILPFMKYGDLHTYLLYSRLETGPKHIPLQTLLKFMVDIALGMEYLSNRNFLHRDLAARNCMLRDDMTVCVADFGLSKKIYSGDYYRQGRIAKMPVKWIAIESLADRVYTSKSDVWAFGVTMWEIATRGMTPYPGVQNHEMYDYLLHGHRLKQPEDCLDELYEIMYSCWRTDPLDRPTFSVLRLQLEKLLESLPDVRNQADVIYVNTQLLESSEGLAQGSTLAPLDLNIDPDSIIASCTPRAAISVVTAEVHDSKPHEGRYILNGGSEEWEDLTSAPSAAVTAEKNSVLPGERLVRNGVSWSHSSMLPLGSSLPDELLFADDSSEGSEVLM
Nature of the assay: BaF3 viability assay, Mer-dependent cells. The settings on record: read-out: Cellular Mer activity by Ba/F3 assay (IC50). Type of assay: cell-based. The source says: In this system, IL-3-dependent Ba/F3 cells are modified to express an activated recombinant kinase (in the present case Axl, Mer and CSF1R). Following removal of IL-3, the modified cells are dependent on the activity of the recombinant kinase for survival and proliferation. Inhibition of such kinase(s) through test compounds reduces survival and proliferation of the cells.
Cell lines were maintained in growth media (GM) consisting of RPMI 1640 supplemented with 10% FBS. Cells in logarithmic-phase growth were harvested and 5,000 cells were distributed into each well of a 384-well plate in 50 μl GM. Parental cells (or experimental assays where specified) were further supplemented with 2 ng/ml IL-3 to support cell growth and survival. Fifty nanoliters of the indicated reference standard or experimental compound were added to appropriate wells (in duplicate) and the cells were cultured for 48 h at 37° C./5% CO2. Viability was determined by adding 10 μl Cell Titer Glo and measuring luminescence, which is reported as relative light units (RLU) measured in counts per second. The following calculations and formulas are used for data analysis using GraphPad Prism software: The curve fitting was made using the Dose response curves-Inhibition.

Where [1] appears, read: comparison of compounds of present invention (**) vs compounds of WO2016/166250 (*), read-out: Binding activity Axl (Kd).
Where [2] appears, read: read-out: Axl kinase binding activity (Kd).

In general, Kd refers to the equilibrium constant for the complex coming apart. On to `CCn1cc(OCC(F)(F)F)c(C(=O)Nc2ccc(Oc3ccnc4cc(OC)c(OC)cc34)cn2)n1` [Compound 4], for which the results for the dissociation constant Kd on Axl (setting [1]) and at Axl (setting [2]) were 1.1 nM and less than 100 nM, respectively. Also, the GI50 on Mer (Ba/F3 cells) is less than 1000 nM. As to `CCCn1cc(OCC(F)(F)F)c(C(=O)Nc2ccc(Oc3ccnc4cc(OC)c(OC)cc34)cn2)n1` [Compound 7], on Axl (setting [2]), the Kd was less than 100 nM. Besides, the GI50 on Mer (Ba/F3 cells) was less than 1000 nM.

Consider `COCCn1cc(OCC(F)(F)F)c(C(=O)Nc2ccc(Oc3ccnc4cc(OC)c(OC)cc34)cn2)n1` [Compound 10], for which the dissociation constant Kd is 3.2 nM at Axl (setting [1]) and less than 100 nM at Axl (setting [2]). Moreover, the GI50 at Mer (Ba/F3 cells) was less than 1000 nM. Consider `CCCn1cc(OCC(F)F)c(C(=O)Nc2ccc(Oc3ccnc4cc(OC)c(OC)cc34)cn2)n1` [Compound 12], for which the Kd on Axl (setting [2]) is less than 100 nM. For the same molecule, on Mer (Ba/F3 cells), the GI50 is less than 1000 nM.

`COc1cc2nccc(Oc3ccc(NC(=O)c4n[nH]cc4OCC(F)(F)F)nc3)c2cc1OC` [Compound 16]: the figures for the Kd at Axl (setting [1]) and at Axl (setting [2]) were 19 nM and less than 100 nM, respectively. For the same molecule, the GI50 at Mer (Ba/F3 cells) was less than 1000 nM.

As to `COc1cc2nccc(Oc3ccc(NC(=O)c4nn(C5CC5)cc4NCCC(F)(F)F)nc3)c2cc1OC` [Compound 142], at Axl (setting [2]), the Kd is less than 100 nM. As for `COc1cc2nccc(Oc3ccc(NC(=O)c4nn(C5CC5)cc4OCC4COC4)nc3)c2cc1OC` [Compound 143], the dissociation constant Kd on Axl (setting [2]) is less than 100 nM. For `COc1cc2nccc(Oc3ccc(NC(=O)c4nn(C5CC5)cc4OCC4CNC4)nc3)c2cc1OC` [Compound 144], at Axl (setting [2]), the Kd was 100 to 500 nM. The same measure, in the same setting: in the case of `COc1cc2nccc(Oc3ccc(NC(=O)c4nn(C5CC5)cc4NCC(F)(F)F)nc3)c2cc1OC` [Compound 145] it was less than 100 nM; in that of `COc1cc2nccc(Oc3ccc(NC(=O)c4nn(C5CC5)cc4NCCC(F)(F)F)nn3)c2cc1OC` [Compound 146], less than 100 nM; in that of `COc1cc2nccc(Oc3ccc(NC(=O)c4nn(C5CC5)cc4OC(C)C)nn3)c2cc1OC` [Compound 147], less than 100 nM. As to `COc1cc2nccc(Oc3ccc(NC(=O)c4nn(C5CC5)cc4NCC(F)(F)F)nn3)c2cc1OC` [Compound 148], the Kd at Axl (setting [2]) was less than 100 nM.

For the molecule `COc1cc2nccc(Oc3ccc(NC(=O)c4nn(C5CC5)cc4OCC4CCC4)nn3)c2cc1OC` [Compound 149], at Axl (setting [2]), the dissociation constant Kd is less than 100 nM.

As to `COCCOc1cn(CC(C)O)nc1C(=O)Nc1ccc(Oc2ccnc3cc(OC)c(OC)cc23)cn1` (stereo not shown) [Compound 150], the dissociation constant Kd on Axl (setting [2]) was less than 100 nM. The same measure, in the same setting: in the case of `COc1cc2nccc(Oc3ccc(NC(=O)c4nn(CC(C)O)cc4OC(C)C)nc3)c2cc1OC` (stereo not shown) [Compound 151] it was less than 100 nM; in that of `COc1cc2nccc(Oc3ccc(NC(=O)c4nn(CC(C)O)cc4OCCF)nc3)c2cc1OC` (stereo not shown) [Compound 152], less than 100 nM.

As to `COc1cc2nccc(Oc3ccc(NC(=O)c4nn(CCOC5CC5)cc4OCC(F)(F)F)nc3)c2cc1OC` [Compound 153], the Kd on Axl (setting [2]) was less than 100 nM.

Turning to `CNCCn1cc(OCC(F)(F)F)c(C(=O)Nc2ccc(Oc3ccnc4cc(OC)c(OC)cc34)cc2F)n1` [Compound 154], the dissociation constant (Kd) at Axl (setting [2]) is less than 100 nM.

Regarding `CNCCn1cc(OCC(F)(F)F)c(C(=O)Nc2ccc(Oc3ccnc4cc(OC)c(OC)cc34)c(F)c2)n1` [Compound 155], the equilibrium dissociation constant (Kd) at Axl (setting [2]) is less than 100 nM. `CNCCn1cc(OCC(F)(F)F)c(C(=O)Nc2ccc(Oc3ccnc4cc(OC)c(OC)cc34)c(C)c2)n1` [Compound 156]: the Kd at Axl (setting [2]) lay within 100 to 500 nM. On to `COc1cc2nccc(Oc3ccc(NC(=O)c4nn(C5CCN(C)C5)cc4OCC(F)(F)F)nn3)c2cc1OC` (stereo not shown) [Compound 157], for which the Kd at Axl (setting [2]) fell in the range of 100 to 500 nM. The same measure, in the same setting: the result for `CCCn1cc(NCCC(F)(F)F)c(C(=O)Nc2ccc(Oc3ccnc4cc(OC)c(OC)cc34)cn2)n1` [Compound 158] reads less than 100 nM; that for `CCCn1cc(OCC2CNC2)c(C(=O)Nc2ccc(Oc3ccnc4cc(OC)c(OC)cc34)cn2)n1` [Compound 159], no less than 500 nM; that for `CNCCOc1cn(C2CC2)nc1C(=O)Nc1ccc(Oc2ccnc3cc(OC)c(OC)cc23)nn1` [Compound 160], no less than 500 nM.

With `COc1cc2nccc(Oc3ccc(NC(=O)c4nn(C5CC5)cc4OCC4COC4)nn3)c2cc1OC` [Compound 161], the dissociation constant Kd at Axl (setting [2]) is less than 100 nM.

As to `COc1cc2nccc(Oc3ccc(NC(=O)c4nn(C5CC5)cc4OCC(F)F)nn3)c2cc1OC` [Compound 162], at Axl (setting [2]), the Kd was less than 100 nM. Take `COc1cc2nccc(Oc3ccc(NC(=O)c4nn(CC(C)O)cc4OCC4CCC4)nc3)c2cc1OC` (stereo not shown) [Compound 163]: the Kd at Axl (setting [2]) was less than 100 nM. As to `CCCn1cc(OCC2CCOCC2)c(C(=O)Nc2ccc(Oc3ccnc4cc(OC)c(OC)cc34)cn2)n1` [Compound 164], at Axl (setting [2]), the equilibrium dissociation constant (Kd) was less than 100 nM.

On to `CCCn1cc(OCCN(C)C)c(C(=O)Nc2ccc(Oc3ccnc4cc(OC)c(OC)cc34)c(F)c2)n1` [Compound 165], for which the equilibrium dissociation constant (Kd) on Axl (setting [2]) is 100 to 500 nM.

Values taken from patent publication US12162858B2, “Quinoline derivatives as inhibitors of AXL/MER RTK and CSF1R” (QURIENT CO., LTD., priority 2018, dated 2024).
